# Measurements from patent US20250236616A1, “IMMUNOMODULATING AZALIDES” (Zoetis Services LLC, priority 2021, published 2025).
# Tests used:
# [1] = PK study, plasma concentration; format: in vivo; conditions: 10 mg/kg dose
# Method: The primary clinical endpoint for efficacy was treatment failure/success over a 14-day observation period. Clinically normal beef calves (150-200 kg) at moderate risk for BRD were dosed on arrival to the feedlot. Animals (N=114/group) received saline (T01), 5 mg/kg M9 (T02) or 10 mg/kg M9 (T03); or Zactran (T04).
# [2] = test system: M. haemolytica challenge model; test: Separate study, M9 versus saline control: lung lesions and mortality; format: in vivo; conditions: 10 mg/kg; saline control 38.9%, p=0.025
# From the text: BRD infection as compared to saline (T01) in the M. haemolytica challenge model. […] Additionally, reduction of biomarkers consistent with the proposed mechanism were observed.
# [3] = test system: M. haemolytica (strain: OSU-012103-BHI); test: Bovine M. haemolytica intratracheal lung challenge model, mortality; format: in vivo; conditions: 6 animals
# Method: To evaluate immunomodulation effects and potential biomarkers, a bovine M. haemolytica (strain: OSU-012103-BHI) intratracheal lung challenge model study was completed utilizing M9 treatment in the presence and absence of bacterial challenge and a Draxxin® comparator. […] Animals were administered 0.05 mL/kg saline (T01), 10 mg/kg M9 (T02); Draxxin 2.5 mg/kg (T03) and 10 mg/kg M9 (T04) by subcutaneous injection on Day-1. Dose was based on body weight. Animals were challenge on Day 0 with the exception of T04. Blood was collected longitudinally throughout the study for biomarker evaluation panel (e.g., IL-6 and CD163) including two baseline samples prior to treatment. FIG. 4A depicts the area under the curve concentrations for IL-6 protein for individual animals against percent lung lesion scores and FIG. 4B depicts the CD163 fold change area under the curve for individual animals against percent lung lesion scores. Data is represented as percent lung lesion scores against the area under the curve (AUC) for IL-6 protein (immunoassay expressed in pg/mL) and CD163 (flow cytometric mean fluorescent intensity (MFI) in fold change from baseline). In both assays, a 2-fold change is typically considered to be relevant.
# P. multocida = test: Murine P. multocida intranasal challenge study, treatment 18 hours after challenge, survival; format: in vivo, mice; conditions: subcutaneous 18 hours after challenge (5×10^3 CFU/mouse); tulathromycin 16 mg/kg, M9 32 mg/kg, ceftiofur 9 mg/kg
# Method: In one murine P. multocida intranasal challenge study, mice were administered tulathromycin (16 mg/kg; T02), M9 (32 mg/kg; T03), or ceftiofur (9 mg/kg; T04) by subcutaneous injection 18 hours after bacterial challenge (5×10^3 CFU/mouse) for lung tissue RNA sequence analysis. Survival at Day 7 was about 80%, 50%, and 90% for T02, T03, and T04, respectively, compared to placebo at 0%. Differential gene expression from total lung tissue RNA sequence analysis indicated at least 226 unique genes were up or down regulated (with significance) for T03. Output from ingenuity pathway analysis of these unique genes predicted major upstream regulators of the involved pathways. Data was analyzed based on the number of genes being modulated in the same direction that were associated with a given upstream regulator. An activation z-score of 2 or greater is considered significant and the direction change is indicated by + (activated) or -(inhibited). The top 5 pathways included: IL-9 signaling, glucocorticoid receptor signaling, prolactin signaling, JAK STAT signaling, and IL-17 signaling. The top 6 upstream regulators (activation z-score) included: lipopolysaccharide (−6.725), TNF (−4.669), IFNγ (−5.759), IL-1β (−5.947), STAT1 (−2.787), and poly rl: rC-RNA (−5.289). Even though this study was run in the murine model, the top upstream regulators identified as being modulated by M9 include an almost ubiquitous overlap with the pathways identified in the natural disease study as being key mediators in BRD, and therefore is modulating highly relevant pathways in BRD pathobiology.
smiles,measurement,setting,value
"CCCNC[C@]1(O)[C@H](C)O[C@@H](O[C@H]2[C@H](C)[C@@H](O[C@@H]3O[C@H](C)C[C@H](NC)[C@H]3O)[C@](C)(O)C[C@@H](C)CN[C@H](C)[C@@H](O)[C@](C)(O)[C@@H](CC)OC(=O)[C@@H]2C)C[C@@]1(C)OC [Example M9, (2R,3S,4R,5R,8R,10R,11R,12S,13S,14R)-2-ethyl-3,4, 10-trihydroxy-13-(((2R,4R,5S,6S)-5-hydroxy-4-methoxy-4,6-dimethyl-5-((propylamino)methyl)-tetrahydro-2H-pyran-2-yl)oxy)-11-(((2S,3R,4S,6R)-3-hydroxy-6-methyl-4-(methylamino)tetrahydro-2H-pyran-2-yl)oxy)-3,5,8,10,12,14-hexamethyl-1-oxa-6-azacyclopentadecan-15-one]",maximum plasma concentration,[1],5 µg/mL
same,Mortality,[2],13%
same,Mortality,"[3]; M. haemolytica challenge Day 0, subcutaneous Day -1, M9 10 mg/kg, Draxxin 2.5 mg/kg",1/6
same,Mortality,"[3]; No challenge, M9 10 mg/kg subcutaneous Day -1",0/6
same,Survival at Day 7,P. multocida,~50%
